Where two headings read alike, the source gives them in different places.
Legend:
[1] = tested on: mitochondrial ATP production on non-small cell lung carcinoma cell lines NCI-H460; test: Mitochondrial ATP analysis (Cell Titer Glo) in NCI-H460 cells; assay type: cell-based; conditions: 1-hour incubation, with sodium iodoacetate (100 μM), concentration inhibiting 50% of mitochondrial ATP production, read-out: IC50 (mito ATP)
How it was run: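 NCI-H460 cells (1,000/well) treated 24 h after plating for 1 h with compound dose series alone or with 100 μM sodium iodoacetate; oligomycin A (10 μg/ml) and FCCP (30 μM) as controls; Cell Titer Glo luminescence. Mitochondrial ATP = ATP under iodoacetate minus ATP under iodoacetate+oligomycin; IC50 (M).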

HIF-1a = test: Western blot model: HIF1-a stabilization in Hep3b cells under hypoxia; assay type: cell-based; conditions: hypoxia 1% O2, 6 hours; for Western Blot (range of decrease of HIF1-a stabilization): class symbol
How it was run: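 Hep3B cells were exposed to compound under hypoxia (1% O2, 37 °C, 5% CO2) for 6 hours. HIF-1a was detected by western blot of 25 μg lysate protein with β-actin as loading control and ECL read-out. Activity is given as a percentage range relative to control.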

Row | SMILES | IC50 ([1]; Homo sapiens, NCI-H460, 1 h) [nM] | Western Blot (decrease of HIF1-a stabilization, percentage relative to control) (HIF-1a) [%] | Western Blot (range of decrease of HIF1-a stabilization) (HIF-1a) | IC50 [1] [nM]
1 | COc1ccc(C(O)C(C)(C)Oc2ccc(-c3c[nH]c(-c4ccc(OC(C)(C)C(O)c5ccc(OC)c(OC)c5)cc4)n3)cc2)cc1OC (single isomer, unassigned) [Compound I-55, 1-(3,4-dimethoxyphenyl)-2-[4-[2-[4-[2-(3,4-dimethoxyphenyl)-2-hydroxy-1,1-dimethyl-ethoxy]phenyl]-1H-imidazol-4-yl]phenoxy]-2-methyl-propan-1-ol] | 435 | 62 | ** (** represents a decrease of HIF-a stabilization between 50 to 70%) | –
2 | COc1ccc(C(O)C(C)(C)Oc2ccc(-c3nsc(-c4ccc(OC(C)(C)C(O)c5ccc(OC)c(OC)c5)cc4)n3)cc2)cc1OC (stereo not drawn) [Compound I-42, 1-(3,4-dimethoxyphenyl)-2-[4-[5-[4-[2-(3,4-dimethoxyphenyl)-2-hydroxy-1,1-dimethyl-ethoxy]phenyl]-1,2,4-thiadiazol-3-yl]phenoxy]-2-methyl-propan-1-ol] | 30 | 56 | ** (** represents a decrease of HIF-a stabilization between 50 to 70%) | –
3 | COc1ccc(C(O)C(C)(C)Oc2ccc(-c3c[nH]c(-c4ccc(OC(C)(C)C(O)c5ccc(OC)c(OC)c5)cc4)n3)cc2)cc1OC (single isomer, unassigned) [Compound I-56, 1-(3,4-dimethoxyphenyl)-2-[4-[2-[4-[2-(3,4-dimethoxyphenyl)-2-hydroxy-1,1-dimethyl-ethoxy]phenyl]-1H-imidazol-4-yl]phenoxy]-2-methyl-propan-1-ol] | – | 75 | *** (*** represents a decrease of HIF-a stabilization higher than 70%) | 760
4 | COc1ccc(C(O)COc2ccc(-c3csc(-c4ccc(OCC(O)c5ccc(OC)c(OC)c5)cc4)n3)cc2)cc1OC (single isomer, unassigned) [Compound I-62, 1-(3,4-dimethoxyphenyl)-2-[4-[2-[4-[2-(3,4-dimethoxyphenyl)-2-hydroxy-ethoxy]phenyl]thiazol-4-yl]phenoxy]ethanol] | – | 43 | * (* represents a decrease of HIF-a stabilization between 30 to 50%) | 492
5 | COc1ccc(C(O)C(C)Oc2ccc(-c3csc(-c4ccc(OC(C)C(O)c5ccc(OC)c(OC)c5)cc4)n3)cc2)cc1OC (single isomer, unassigned) [Compound I-33, 1-(3,4-dimethoxyphenyl)-2-[4-[2-[4-[2-(3,4-dimethoxyphenyl)-2-hydroxy-1-methyl-ethoxy]phenyl]thiazol-4-yl]phenoxy]propan-1-ol] | – | 52 | * (* represents a decrease of HIF-a stabilization between 30 to 50%) | 30.1
6 | COc1ccc(C(O)C(C)(C)Oc2ccc(-c3nsc(-c4ccc(OC(C)(C)C(O)c5ccc(OC)c(OC)c5)cc4)n3)cc2)cc1OC (single isomer, unassigned) [Compound I-43, 1-(3,4-dimethoxyphenyl)-2-[4-[5-[4-[2-(3,4-dimethoxyphenyl)-2-hydroxy-1,1-dimethyl-ethoxy]phenyl]-1,2,4-thiadiazol-3-yl]phenoxy]-2-methyl-propan-1-ol] | 37 | 32 | * (* represents a decrease of HIF-a stabilization between 30 to 50%) | –
7 | COc1ccc(C(O)COc2ccc(-c3csc(-c4ccc(OCC(O)c5ccc(OC)c(OC)c5)cc4)n3)cc2)cc1OC (single isomer, unassigned) [Compound I-25, 1-(3,4-dimethoxyphenyl)-2-[4-[2-[4-[2-(3,4-dimethoxyphenyl)-2-hydroxy-ethoxy]phenyl]thiazol-4-yl]phenoxy]ethanol] | – | 41 | * (* represents a decrease of HIF-a stabilization between 30 to 50%) | 195
8 | COc1ccc(C(O)C(C)Oc2ccc(-c3csc(-c4ccc(OC(C)C(O)c5ccc(OC)c(OC)c5)cc4)n3)cc2)cc1OC (single isomer, unassigned) [Compound I-32, 1-(3,4-dimethoxyphenyl)-2-[4-[2-[4-[2-(3,4-dimethoxyphenyl)-2-hydroxy-1-methyl-ethoxy]phenyl]thiazol-4-yl]phenoxy]propan-1-ol] | – | 45 | * (* represents a decrease of HIF-a stabilization between 30 to 50%) | 47.6
9 | COc1ccc(C(O)C(C)Oc2ccc(-c3csc(-c4ccc(OC(C)C(O)c5ccc(OC)c(OC)c5)cc4)n3)cc2)cc1OC (single isomer, unassigned) [Compound I-31, 1-(3,4-dimethoxyphenyl)-2-[4-[2-[4-[2-(3,4-dimethoxyphenyl)-2-hydroxy-1-methyl-ethoxy]phenyl]thiazol-4-yl]phenoxy]propan-1-ol] | – | 64 | ** (** represents a decrease of HIF-a stabilization between 50 to 70%) | 300
10 | COc1cc(C(O)COc2ccc(-c3coc(-c4ccc(OCC(O)c5cc(OC)c(OC)c(OC)c5)cc4)n3)cc2)cc(OC)c1OC (single isomer, unassigned) [Compound I-22, 2-[4-[2-[4-[2-hydroxy-2-(3,4,5-trimethoxyphenyl)ethoxy]phenyl]oxazol-4-yl]phenoxy]-1-(3,4,5-trimethoxyphenyl)ethanol] | – | 57 | ** (** represents a decrease of HIF-a stabilization between 50 to 70%) | 1280
11 | COc1ccc(C(O)COc2ccc(-c3cn(C)c(-c4ccc(OCC(O)c5ccc(OC)c(OC)c5)cc4)n3)cc2)cc1OC (stereo not drawn) [Compound I-58, 1-(3,4-dimethoxyphenyl)-2-[4-[2-[4-[2-(3,4-dimethoxyphenyl)-2-hydroxy-ethoxy]phenyl]-1-methyl-imidazol-4-yl]phenoxy]ethanol] | 458 | 56 | ** (** represents a decrease of HIF-a stabilization between 50 to 70%) | –
12 | COc1ccc(C(O)COc2ccc(-c3csc(-c4ccc(OCC(O)c5ccc(OC)c(OC)c5)cc4)n3)cc2)cc1OC (single isomer, unassigned) [Compound I-24, 1-(3,4-dimethoxyphenyl)-2-[4-[2-[4-[2-(3,4-dimethoxyphenyl)-2-hydroxy-ethoxy]phenyl]thiazol-4-yl]phenoxy]ethanol] | – | 49 | * (* represents a decrease of HIF-a stabilization between 30 to 50%) | 254

From patent US20170313674A1, “BENZYLHYDROXIDE DERIVATIVES, PREPARATION THEREOF AND THERAPEUTIC USE THEREOF” (SANOFI, priority 2014, published 2017)
